Assay results published in the C3SDB collision cross section collection.

Experiments:
[1] = instrument: DT, single field, calibrated with Agilent tune mix (Agilent)
[2] = instrument: DT, single field, calibrated with Agilent tune mix (Agilent); remark: listed apart in the source
[3] = instrument: DT, stepped-field

Row | Structure (SMILES) | collision cross section (N2) ([3]; [M+H]+) [Å²] | collision cross section (N2) ([3]; [M+Na]+) [Å²] | other results
1 | CCCC/C=C\CCCCCCCC(=O)OC[C@H](COP(=O)(O)O)OC(=O)CCCCCCCCCCCCCCCCCCCCC [PA(36:1)] |  |  | collision cross section (N2) ([1]; [M+NH4]+): 277.7 Å²; collision cross section (N2) ([1]; [M+Na]+): 275.6 Å²; collision cross section (N2) ([1]; [M-H]-): 261.6 Å²
2 | CCCCCCCCCC/C=C\CCCCCCCCCC(=O)O[C@H](COC(=O)CCCCCCCCCCCC)COP(=O)([O-])OCC[N+](C)(C)C [PC(35:1)] |  |  | collision cross section (N2) ([1]; [M+H]+): 289.2 Å²
3 | CC(=O)[C@H]1CC[C@H]2[C@@H]3CC=C4C[C@@H](O)CC[C@]4(C)[C@H]3CC[C@]12C [Pregnenolone] | 177.25 | 216.16 | collision cross section (N2) ([2]; [M+H]+): 174 Å²; collision cross section (N2) ([2]; [M-H]-): 182.86 Å²
4 | CCCCC[C@H](O)/C=C/[C@H]1C(=O)C[C@H](O)[C@@H]1C/C=C\CCCC(=O)O [Prostaglandin D2] |  | 196.63 | collision cross section (N2) ([2]; [M+Na]+): 192.4 Å²; collision cross section (N2) ([2]; [M-H2O-H]-): 186.17 Å²
5 | CCCCC[C@H](O)/C=C/[C@H]1[C@H](O)CC(=O)[C@@H]1C/C=C\CCCC(=O)O [Prostaglandin E2] |  | 198.53 | collision cross section (N2) ([2]; [M+Na]+): 196.8 Å²; collision cross section (N2) ([2]; [M-H2O-H]-): 183.57 Å²
6 | c1ncc2[nH]cnc2n1 [Purine] | 125.4 |  | collision cross section (N2) ([2]; [M+H]+): 121.8 Å²
7 | Cc1ncc(CO)c(C=O)c1O [Pyridoxal] | 135.42 |  | collision cross section (N2) ([2]; [M+H]+): 130.5 Å²
8 | Cc1ncc(CO)c(CO)c1O [Pyridoxine] | 135.69 | 148.49 | collision cross section (N2) ([2]; [M+H]+): 134.6 Å²; collision cross section (N2) ([2]; [M-H]-): 130.75 Å²
9 | OC[C@H]1O[C@H](OC[C@H]2O[C@H](O[C@]3(CO)O[C@H](CO)[C@@H](O)[C@@H]3O)[C@H](O)[C@@H](O)[C@@H]2O)[C@H](O)[C@@H](O)[C@H]1O [Raffinose] |  | 208.72 | collision cross section (N2) ([2]; [M+H]+): 209 Å²
10 | N[C@@H](CSCC(=O)O)C(=O)O [S-Carboxymethyl-L-cysteine] | 141.13 | 142.13 | collision cross section (N2) ([2]; [M+H]+): 137.2 Å²
11 | OC[C@H]1O[C@H](OC[C@H]2O[C@H](OC[C@H]3O[C@H](O[C@]4(CO)O[C@H](CO)[C@@H](O)[C@@H]4O)[C@H](O)[C@@H](O)[C@@H]3O)[C@H](O)[C@@H](O)[C@H]2O)[C@H](O)[C@@H](O)[C@H]1O [Stachyose] |  | 236.4 | collision cross section (N2) ([2]; [M+Na]+): 234.1 Å²; collision cross section (N2) ([2]; [M-H]-): 221.12 Å²
12 | COc1ccc(-c2cc(=O)c3c(OC)c(OC)c(OC)c(OC)c3o2)cc1 [Tangeritin] | 187.9 | 208.15 | 
13 | C[C@]12CC[C@H]3[C@@H](CCC4=CC(=O)CC[C@@]43C)[C@@H]1CC[C@@H]2O [Testosterone] | 183.82 | 206.07 | collision cross section (N2) ([2]; [M+H]+): 172.7 Å²; collision cross section (N2) ([2]; [M-H]-): 175.64 Å²
14 | CN(C)[C@@H]1C(=O)C(C(N)=O)=C(O)[C@@]2(O)C(=O)C3=C(O)c4c(O)cccc4[C@@](C)(O)[C@H]3C[C@@H]12 [Tetracycline] | 198.48 | 212.5 | 
15 | CCCCC[C@H](O)/C=C/[C@H]1OC(O)C[C@H](O)[C@@H]1C/C=C\CCCC(=O)O (stereo partly drawn) [Thromboxane B2] |  | 202.08 | 
16 | CC(C)[C@]12CC(=O)[C@H](C)[C@H]1C2 [Thujone] | 141.82 |  | 
17 | Cc1cn([C@H]2C[C@H](O)[C@@H](CO)O2)c(=O)[nH]c1=O [Thymidine] |  | 164.51 | collision cross section (N2) ([2]; [M+Na]+): 161 Å²; collision cross section (N2) ([2]; [M-H]-): 151.22 Å²
18 | NC(=O)[C@@H]1CCCN1C(=O)[C@H](Cc1cnc[nH]1)NC(=O)[C@@H]1CCC(=O)N1 [Thyrotropin-releasing hormone] | 181 | 184.12 | 
19 | O=c1ccc2ccc(O)cc2o1 [Umbelliferone] |  | 154.46 | 
20 | O=c1ccn([C@@H]2O[C@H](COP(=O)(O)O)[C@@H](O)[C@H]2O)c(=O)[nH]1 [Uridine 5'-Monophosphate] | 169.81 | 175.14 | 
21 | O=C(O)/C=C/c1cnc[nH]1 [Urocanate] | 137.54 |  | 
22 | CC(C)=CCC/C(C)=C/CC/C(C)=C/CC/C(C)=C/CC1=C(C)C(=O)c2ccccc2C1=O [Vitamin K2] | 198.66 |  | 
23 | C[C@@H]1NC(=O)N[C@@H]1CCCCCC(=O)O [d-Desthiobiotin] | 145.78 | 159.12 | 
24 | O=P(O)(O)OC[C@H](O)CO [sn-Glycerol 3-phosphate] |  | 142.16 | 
